Assay results taken from patent publication US20210052701A1, “Methods of Treating Vascular Leakage Using CXCL12 Peptides” (The Medical College of Wisconsin, Inc., priority 2018, published 2021).

How the values were obtained:
CXCR4 = target: T1, CXCR4 (Homo sapiens, UniProt P61073); assay: Presto-Tango β-arrestin 2 recruitment assay for CXCR4; assay type: cell-based
T1 construct: host or cells: HTLA cells (HEK293 line stably expressing a tTA-dependent luciferase reporter and a β-arrestin2-TEV fusion gene)
T1 sequence (P61073 whole entry, the tested form may be a part): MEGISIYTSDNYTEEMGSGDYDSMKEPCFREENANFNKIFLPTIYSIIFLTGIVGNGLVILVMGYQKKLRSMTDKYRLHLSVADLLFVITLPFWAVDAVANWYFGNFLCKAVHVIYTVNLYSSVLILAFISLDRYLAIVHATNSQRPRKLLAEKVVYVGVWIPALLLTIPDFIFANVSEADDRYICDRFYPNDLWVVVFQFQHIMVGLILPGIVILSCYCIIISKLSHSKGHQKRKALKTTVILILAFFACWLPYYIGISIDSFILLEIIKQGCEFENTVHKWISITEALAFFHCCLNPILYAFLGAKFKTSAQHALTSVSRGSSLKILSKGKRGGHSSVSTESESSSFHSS
Description: FIGS. 6A-6F show Presto-Tango β-arrestin 2 recruitment assays for CXCR4 (A-C) and ACKR3 (D-F). RLU %: % of the luminescence signal for 1 μM CXCL12α. N=9 for CXCL12a and n=3 for all other proteins.
Presto-Tango β-arrestin 2 recruitment assay—The PRESTO-Tango (parallel receptorome expression and screening via transcriptional out-put, with transcriptional activation following arrestin translocation) assay was performed as recently described. The Tango plasmids were a gift from Dr. Bryan Roth (all from Addgene). HTLA cells (2.5×10^5/well) were seeded in a 6-well plate and transfected with 1.5 μg of the Tango plasmids using Lipofectamine 3000 (ThermoScientific). The following day, transfected HTLA cells (1×10^5 cells/well) were plated onto Poly-L-Lysine pre-coated 96-well micro-plates and allowed to attach to the plate surface for at least 4 hours prior to treatment. Proteins used for treatment were prepared in twice the final concentration in culture media, added at a 1:1 vol/vol ratio and incubated overnight at 37° C., 5% CO2 in a humidified environment. The following morning, media was removed from cell culture plates and replaced with a 100 μL 1:5 mixture of Bright-Glo (Promega) and 1×HBSS, 20 mM HEPES solution. Plates were then incubated at room temperature before measuring luminescence on a Biotek Synergy II plate reader.

CXCL12 = CXCL12 (Homo sapiens, UniProt P48061); details: read-out: dimerization Kd; cited from earlier work
Chain of CXCL12 (P48061 22-89 limits assumed): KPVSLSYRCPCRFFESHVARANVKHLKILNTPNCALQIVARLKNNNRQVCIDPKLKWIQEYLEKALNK

[1] = test system: animal model of acute respiratory distress syndrome (ARDS); assay: Animal model of ARDS: lung ischemia reperfusion injury plus hemorrhage (P:F ratio, lung injury score); assay type: in vivo, Sprague-Dawley rats
Description: Animals underwent 70 min of […] lung ischemia for 70 min plus hemorrhage to a MAP of 40 mmHg for the last 30 min of ischemia, followed by fluid resuscitation to a MAP of 60 mmHg until t=300 min. Arrow: drug injection. Dashed lines indicate the P:F ratio (mmHg) threshold values for the diagnosis of mild, moderate and severe ARDS. Vehicle: n=5. CXCL12: n=3. CXCL12: n=4. CXCL12-LM: n=3, CXCL12-LD: n=4. CXCL12 K27A/R41A/R47A: n=3. LI+HEM: lung ischemia reperfusion injury plus hemorrhage. Data are mean±SEM. *: p<0.05 vs. vehicle (2-way ANOVA/Dunnett's multiple comparisons test).
FIGS. 12A-12C show lung histology after treatment with CXCL12 and engineered CXCR4 agonists A. Lung specimens were placed in formalin fixative solution and were then embedded in paraffin wax, sliced into 5 μm sections and stained with H&E. Representative images from H&E stained lung sections from animals after vehicle (left) and CXCL12 ([…], right treatment. B/C. Lung injury scores (B. uninjured (left) lung; C. injured (right) lung). Data are median±interquartile ranges. Data were analyzed with the Kruskal Wallis test with Dunn's multiple comparisons test. The level of statistical significance (p) vs. ctrl. (vehicle treatment) indicated.
We tested therapeutic efficacy of wild-type CXCL12, CXXL12-locked dimer (LD), CXCL12-locked monomer (LM) and the triple mutant CXCL12 K27A/R41A/R47A in an animal model of acute respiratory distress syndrome (ARDS) (FIG. 11). All drugs were injected in a dose of 0.14 μmol/kg. Male Sprague-Dawley rats were anesthetized, orotracheally intubated, instrumented with arterial/venous catheters, and mechanically ventilated (PEEP 2 mmHg, FiO2 1.0). After a right lateral thoracotomy, a suture was tied around the hilum of the right lung. Animals underwent 70 min of right lung ischemia plus hemorrhage to a mean arterial blood pressure (MAP) of 40 mmHg for the last 30 min of lung ischemia. At t=70 min, the suture was removed, animals were ventilated with FiO2 1.0, PEEP 5 mmHg and resuscitated with crystalloids to a MAP of 60 mmHg until t=300 min. Vehicle and drugs were injected i.v. within 10 min after reperfusion.
We further evaluated histomorphology of the lungs from animals treated with vehicle, wild-type CXCL12, CXCL12-LD and CXCXL12-LM utilizing a standardized lung injury score. Lung slides stained with hematoxylin and eosin were examined under a light microscope by 4 investigators blinded to the identity of the specimens. The lung injury score was assessed as previously described/. In brief each investigator rendered a score of 0 (no damage) to 4+(maximal damage) based on an injury grading scale composed of six criteria. The slides were assessed for the extent of alveolar congestion, hemorrhage and edema, as well as alveolar and vessel wall PMN infiltration and alveolar wall thickness. […] Lung injury scores of the uninjured and injured lungs from animals treated with vehicle, wild-type CXCL12, CXCL12-LD and CXCXL12-LM are shown in FIGS. […], respectively.

With “CXCL12: Wild-type CXCL12 (SEQ ID NO:1), cognate agonist of CXCR4 and ACKR3” as the substance, how does the “potency (EC50) to recruit β-arrestin 2 to CXCR4, compared with CXCL12α” value (CXCR4) read?
Its value is “no statistically significant differences”.

What about the Kd (CXCL12) of the same substance?
Its Kd is 140 µM.

What about the “development of ARDS (P:F ratio)” value ([1]; 0.14 μmol/kg i.v. within 10 min after reperfusion, until t=300 min) of the same substance?
The value was “development of ARDS was delayed and attenuated”.

And the “time at which criteria for mild ARDS were fulfilled” value ([1]; 0.14 μmol/kg i.v., P:F ratio<300 mmHg)?
Its value is 300 min.

What about the “P:F ratios compared with vehicle treated animals” value ([1]; 0.14 μmol/kg i.v., t=90-240 min) of the same substance?
The value was “significantly higher”.

What about the “histological signs of lung injury, injured lung (lung injury score)” value ([1]; H&E sections, vs. vehicle) of the same substance?
The value was “significantly reduced”.
